How the values of this data set were obtained: The term “water insoluble pharmaceutical” means a pharmaceutical active ingredient that is insoluble or nearly insoluble in water with a dose number greater than 1. The dose number is defined as follows:
Dose number=theoretical dose in mg/water solubility×250 ml.
For example, if the theoretical dose of the drug is 20 mg per dose. […] Another example of a water insoluble pharmaceutical includes the compound of Formula I

The structures appear in SMILES notation. A value given as a limit tells only on which side of the number the result lay.

In the case of `CC[C@H](C)C(=O)O[C@H]1C[C@@H](C)C=C2C=C[C@H](C)[C@H](CC[C@@H]3C[C@@H](O)CC(=O)O3)[C@H]21` [lovastatin], the “dose number (theoretical dose in mg/water solubility×250 ml)” value is given as more than 8.
